Assays:
EGFR L858R = target: T1, EGFR L858R (Homo sapiens, UniProt P00533, L858R); assay: Biochemical EGFR inhibition assay (Caliper mobility shift), EGFR L858R; details: biochemical Caliper mobility shift assay, EGFR L858R enzyme; read-out: Enz EGFR L858R IC50
T1 construct: purchased SignalChem E10-122BG
Outline: (§1)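 Kinase activity measured as phosphorylation of 2.5 µM 5-FAM-labelled peptide substrate in 100 mM HEPES pH 7.5, 10 mM MgCl2, 0.015% Brij-35, 1 mM DTT, 1.0% DMSO, at 1.0 mM ATP or ATP Km. Run at 25 °C to 10–20% conversion, stopped with EDTA; product resolved by mobility shift, apparent IC50 from percent activity vs log concentration.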

EGFR (d746-750) = target: T2, EGFR (d746-750) (Homo sapiens, UniProt P00533, DEL746-750); assay: Biochemical EGFR inhibition assay (Caliper mobility shift), EGFR (d746-750); details: biochemical Caliper mobility shift assay, EGFR Exon 19-del enzyme; read-out: Enz EGFR Exon 19-del IC50
T2 construct: purchased SignalChem E10-122JG
Outline: as §1

[1] = target: intracellular phosphorylation of EGFR (Tyr1068) in PC-9 cells (Homo sapiens, UniProt P00533, DEL746-750); assay: PC-9 pEGFR AlphaLISA assay; type: cell-based; details: 4 hours incubation, read-out: Phos EGFR PC9 IC50
Outline: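 PC-9 cells (EGFR del746-750) in phenol-free DMEM/10% FBS, adhered overnight, then exposed to 10-point 4-fold compound dilutions for 4 h at 37 °C. Lysates assayed for pEGFR Tyr1068 by AlphaLISA SureFire Ultra; IC50 from percent pEGFR inhibition vs log concentration.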

Sequence of intracellular phosphorylation of EGFR (Tyr1068) in PC-9 cells (P00533 with tags, fused parts or gaps DEL746-750): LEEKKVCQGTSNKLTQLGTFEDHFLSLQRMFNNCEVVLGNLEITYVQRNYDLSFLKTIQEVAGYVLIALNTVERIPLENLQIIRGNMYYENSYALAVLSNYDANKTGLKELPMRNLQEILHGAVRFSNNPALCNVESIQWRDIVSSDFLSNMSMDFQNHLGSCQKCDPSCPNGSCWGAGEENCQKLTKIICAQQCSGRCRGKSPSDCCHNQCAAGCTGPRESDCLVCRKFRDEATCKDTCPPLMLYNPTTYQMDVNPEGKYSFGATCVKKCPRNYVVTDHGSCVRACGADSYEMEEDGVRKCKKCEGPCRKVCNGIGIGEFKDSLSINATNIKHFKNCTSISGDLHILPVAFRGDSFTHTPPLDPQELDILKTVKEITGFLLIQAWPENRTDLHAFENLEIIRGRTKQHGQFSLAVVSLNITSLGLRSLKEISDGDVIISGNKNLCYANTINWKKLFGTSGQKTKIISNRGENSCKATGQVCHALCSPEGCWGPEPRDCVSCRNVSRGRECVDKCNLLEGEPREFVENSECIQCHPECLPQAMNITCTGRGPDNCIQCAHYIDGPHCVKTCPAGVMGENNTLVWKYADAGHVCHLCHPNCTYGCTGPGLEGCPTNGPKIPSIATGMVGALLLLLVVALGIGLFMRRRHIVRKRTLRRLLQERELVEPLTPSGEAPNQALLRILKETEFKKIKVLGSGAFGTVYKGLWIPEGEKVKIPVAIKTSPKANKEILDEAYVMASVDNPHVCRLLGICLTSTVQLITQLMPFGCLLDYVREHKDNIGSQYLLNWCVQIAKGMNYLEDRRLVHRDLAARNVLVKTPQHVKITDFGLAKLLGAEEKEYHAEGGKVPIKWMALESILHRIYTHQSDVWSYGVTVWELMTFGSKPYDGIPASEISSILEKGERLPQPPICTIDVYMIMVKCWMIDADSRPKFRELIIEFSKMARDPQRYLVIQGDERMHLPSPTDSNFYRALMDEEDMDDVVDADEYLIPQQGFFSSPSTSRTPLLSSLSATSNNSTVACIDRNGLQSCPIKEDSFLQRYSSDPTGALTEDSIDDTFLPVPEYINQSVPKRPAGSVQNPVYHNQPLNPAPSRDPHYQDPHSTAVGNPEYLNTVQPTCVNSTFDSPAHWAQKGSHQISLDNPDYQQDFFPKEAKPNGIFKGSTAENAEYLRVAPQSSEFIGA
T1 sequence (P00533 25-1210 L858R): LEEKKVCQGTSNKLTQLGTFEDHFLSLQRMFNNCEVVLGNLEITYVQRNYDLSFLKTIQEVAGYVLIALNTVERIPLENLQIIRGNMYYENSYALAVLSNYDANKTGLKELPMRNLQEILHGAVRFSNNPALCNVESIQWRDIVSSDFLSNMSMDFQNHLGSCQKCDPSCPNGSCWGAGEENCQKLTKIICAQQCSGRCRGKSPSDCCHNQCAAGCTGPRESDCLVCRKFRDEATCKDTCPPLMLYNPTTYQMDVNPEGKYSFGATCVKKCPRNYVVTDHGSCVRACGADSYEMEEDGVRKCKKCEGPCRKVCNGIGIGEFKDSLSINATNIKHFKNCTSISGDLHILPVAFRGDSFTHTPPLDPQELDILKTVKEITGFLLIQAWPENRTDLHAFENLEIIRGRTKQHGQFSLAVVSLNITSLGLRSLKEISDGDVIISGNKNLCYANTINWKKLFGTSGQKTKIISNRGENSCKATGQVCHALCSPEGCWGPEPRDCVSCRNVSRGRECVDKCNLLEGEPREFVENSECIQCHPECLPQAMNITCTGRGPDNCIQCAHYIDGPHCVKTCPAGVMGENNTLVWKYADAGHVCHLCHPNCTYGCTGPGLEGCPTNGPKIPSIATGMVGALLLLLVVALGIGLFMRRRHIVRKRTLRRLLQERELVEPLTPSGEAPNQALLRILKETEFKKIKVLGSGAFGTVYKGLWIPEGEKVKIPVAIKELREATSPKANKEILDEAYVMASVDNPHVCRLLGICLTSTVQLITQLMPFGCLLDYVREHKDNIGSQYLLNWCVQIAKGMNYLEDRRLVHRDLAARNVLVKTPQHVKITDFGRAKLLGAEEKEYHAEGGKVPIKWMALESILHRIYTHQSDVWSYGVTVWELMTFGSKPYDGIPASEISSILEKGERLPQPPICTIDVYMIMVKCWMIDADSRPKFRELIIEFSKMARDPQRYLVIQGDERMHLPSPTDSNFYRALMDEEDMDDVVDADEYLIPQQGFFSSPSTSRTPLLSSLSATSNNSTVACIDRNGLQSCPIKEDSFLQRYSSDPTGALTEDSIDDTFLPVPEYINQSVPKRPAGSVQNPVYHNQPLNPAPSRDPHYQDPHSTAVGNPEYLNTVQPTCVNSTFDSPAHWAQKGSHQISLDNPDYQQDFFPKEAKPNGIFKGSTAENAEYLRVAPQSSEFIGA
T2 sequence (P00533 with tags, fused parts or gaps DEL746-750 limits assumed): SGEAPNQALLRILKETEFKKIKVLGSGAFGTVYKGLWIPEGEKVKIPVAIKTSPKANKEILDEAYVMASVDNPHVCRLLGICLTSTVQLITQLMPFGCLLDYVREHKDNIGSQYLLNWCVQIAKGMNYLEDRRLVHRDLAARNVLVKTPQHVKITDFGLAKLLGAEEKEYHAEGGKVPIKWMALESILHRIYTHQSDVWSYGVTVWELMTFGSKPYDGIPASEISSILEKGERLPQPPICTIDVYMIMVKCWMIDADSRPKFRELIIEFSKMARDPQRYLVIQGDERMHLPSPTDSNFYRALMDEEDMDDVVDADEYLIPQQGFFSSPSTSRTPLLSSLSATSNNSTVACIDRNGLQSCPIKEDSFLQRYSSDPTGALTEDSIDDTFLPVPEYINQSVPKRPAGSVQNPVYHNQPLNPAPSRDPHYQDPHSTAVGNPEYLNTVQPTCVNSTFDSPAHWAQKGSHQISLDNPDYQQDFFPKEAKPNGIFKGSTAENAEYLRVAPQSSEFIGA

Row | SMILES | IC50 (EGFR L858R) [nM] | IC50 (EGFR (d746-750)) [nM] | IC50 [1] [nM]
1 | COc1nn(C)cc1-c1cc(OC2COC2)c2c(Nc3ccc4ncsc4c3)ncnc2c1 [Example 18, N-(7-(3-methoxy-1-methyl-1H-pyrazol-4-yl)-5-(oxetan-3-yloxy)quinazolin-4-yl)benzo[d]thiazol-6-amine] | ≤ 10 | ≤ 10 | ≤ 10
2 | CCC(=O)N1CCC(Oc2cc3c(Nc4ccc5ncsc5c4)ncnc3cc2OC)CC1 [Example 260, 1-(4-((4-(benzo[d]thiazol-6-ylamino)-7-methoxyquinazolin-6-yl)oxy)piperidin-1-yl)propan-1-one] | ≤ 10 | ≤ 10 | 10.1 to 50
3 | Cn1cc(-c2cc(O[C@H]3CC[C@@H](O)CC3)c3c(Nc4ccc5ncsc5c4)ncnc3c2)cn1 [Example 11, (1s,4s)-4-((4-(benzo[d]thiazol-6-ylamino)-7-(1-methyl-1H-pyrazol-4-yl)quinazolin-5-yl)oxy)cyclohexan-1-ol] | ≤ 10 | ≤ 10 | ≤ 10
4 | CN1CCC2(COC2)[C@H](Oc2cc(-c3cnn(C)c3)cc3ncnc(Nc4ccc5ncsc5c4)c23)C1 (single isomer, unassigned) [Example 354] | 10.1 to 50 | ≤ 10 | 10.1 to 50
5 | C[C@@H](Oc1cc(N2CCN(C)CC2)cc2ncnc(Nc3ccc4ncsc4c3F)c12)[C@H]1CCCO1 [Example 115, 7-fluoro-N-(7-(4-methylpiperazin-1-yl)-5-((R)-1-((R)-tetrahydrofuran-2-yl)ethoxy)quinazolin-4-yl)benzo[d]thiazol-6-amine] | ≤ 10 | ≤ 10 | ≤ 10
6 | Cn1cc(-c2cc(O[C@H]3C[C@@H](O)C3)c3c(Nc4ccc5ncsc5c4)ncnc3c2)cn1 [Example 20, cis-3-((4-(benzo[d]thiazol-6-ylamino)-7-(1-methyl-1H-pyrazol-4-yl)quinazolin-5-yl)oxy)cyclobutan-1-ol] | ≤ 10 | ≤ 10 | ≤ 10
7 | COc1cc2ncnc(Nc3ccc4ncsc4c3)c2cc1-c1cnn([C@H]2CCNC[C@@H]2F)c1 (racemic) [Example 168, trans-N-(6-(1-((3S,4S)-3-fluoropiperidin-4-yl)-1H-pyrazol-4-yl)-7-methoxyquinazolin-4-yl)benzo[d]thiazol-6-amine] | ≤ 10 | ≤ 10 | 10.1 to 50
8 | Cn1cc(-c2cc(O[C@H]3CCOC3)c3c(Nc4ccc5ncsc5c4)ncnc3c2)cn1 [Example 36, (S)-N-(7-(1-methyl-1H-pyrazol-4-yl)-5-((tetrahydrofuran-3-yl)oxy)quinazolin-4-yl)benzo[d]thiazol-6-amine] | ≤ 10 | ≤ 10 | ≤ 10
9 | Cn1cc(-c2cc(OC3COC3)c3c(Nc4ccc5ncsc5c4)ncnc3c2)cn1 [Example 406, N-(7-(1-methyl-1H-pyrazol-4-yl)-5-(oxetan-3-yloxy)quinazolin-4-yl)benzo[d]thiazol-6-amine] | ≤ 10 | ≤ 10 | ≤ 10
10 | COc1nn(C)cc1-c1cc(O[C@H]2CCNC[C@H]2F)c2c(Nc3ccc4ncsc4c3)ncnc2c1 [Example 365, N-(5-(((3R,4S)-3-fluoropiperidin-4-yl)oxy)-7-(3-methoxy-1-methyl-1H-pyrazol-4-yl)quinazolin-4-yl)benzo[d]thiazol-6-amine] | ≤ 10 | ≤ 10 | ≤ 10
11 | COc1nn(C)cc1-c1cc(OC2CC2)c2c(Nc3ccc4ncsc4c3)ncnc2c1 [Example 77, N-(5-cyclopropoxy-7-(3-methoxy-1-methyl-1H-pyrazol-4-yl)quinazolin-4-yl)benzo[d]thiazol-6-amine] | ≤ 10 | ≤ 10 | ≤ 10
12 | C[C@@H](Oc1cc(N2CCN(C)CC2)cc2ncnc(Nc3ccc4ncsc4c3)c12)C1COC1 (single isomer, unassigned) [Example 97] | 10.1 to 50 | ≤ 10 | 10.1 to 50
13 | COc1cc2ncnc(Nc3ccc4ncsc4c3)c2cc1-c1cnn(C)c1 [Example 132, N-(7-methoxy-6-(1-methyl-1H-pyrazol-4-yl)quinazolin-4-yl)benzo[d]thiazol-6-amine] | ≤ 10 | ≤ 10 | ≤ 10
14 | C[C@H](CO)Oc1cc(N2CCN(C)CC2)cc2ncnc(Nc3ccc4ncsc4c3)c12 (single isomer, unassigned) [Example 293] | ≤ 10 | ≤ 10 | 10.1 to 50
15 | Cn1cc(-c2cc(O[C@H]3COC[C@H]3F)c3c(Nc4ccc5ncsc5c4)ncnc3c2)cn1 (racemic) [Example A10, N-(5-(((3S,4R)-4-fluorotetrahydrofuran-3-yl)oxy)-7-(1-methyl-1H-pyrazol-4-yl)quinazolin-4-yl)benzo[d]thiazol-6-amine] | ≤ 10 | ≤ 10 | ≤ 10
16 | COc1cc(O[C@H](C)C2COC2)c2c(Nc3ccc4ncsc4c3F)ncnc2c1 (single isomer, unassigned) [Example 83] | ≤ 10 | ≤ 10 | ≤ 10
17 | C[C@@H](Oc1cc(N2CC3CC(C2)O3)cc2ncnc(Nc3ccc4ncsc4c3)c12)C1COC1 [Example 129, N-(7-(6-oxa-3-azabicyclo[3.1.1]heptan-3-yl)-5-((R)-1-(oxetan-3-yl)ethoxy)quinazolin-4-yl)benzo[d]thiazol-6-amine] | ≤ 10 | ≤ 10 | ≤ 10
18 | CN1CC[C@@H](Nc2cc3c(Nc4ccc5ncsc5c4)ncnc3cc2-c2ccn(C)n2)[C@H](F)C1 (single isomer, unassigned) [Example 327] | ≤ 10 | ≤ 10 | ≤ 10
19 | C[C@@H](Oc1cc(N2CCN(C)[C@@H]3C[C@@H]32)cc2ncnc(Nc3ccc4ncsc4c3)c12)C1COC1 (single isomer, unassigned) [Example 299] | 10.1 to 50 | ≤ 10 | 10.1 to 50
20 | CN1CC[C@H](O)[C@@H](Oc2cc(-c3cnn(C)c3)cc3ncnc(Nc4ccc5ncsc5c4)c23)C1 (single isomer, unassigned) [Example A33] | ≤ 10 | ≤ 10 | ≤ 10
21 | C[C@H](Oc1cc(-c2cnn(C)c2)cc2ncnc(Nc3ccc4ncsc4c3)c12)C1CC1 [Example 66, (S)-N-(5-(1-cyclopropylethoxy)-7-(1-methyl-1H-pyrazol-4-yl)quinazolin-4-yl)benzo[d]thiazol-6-amine] | ≤ 10 | ≤ 10 | ≤ 10
22 | CN(C)CC1(COc2cc(-c3cnn(C)c3)cc3ncnc(Nc4ccc5ncsc5c4)c23)COC1 [Example 188, N-(5-((3-((dimethylamino)methyl)oxetan-3-yl)methoxy)-7-(1-methyl-1H-pyrazol-4-yl)quinazolin-4-yl)benzo[d]thiazol-6-amine] | 10.1 to 50 | ≤ 10 | 10.1 to 50
23 | C[C@@H](Oc1cc(-c2cnn(C)c2)cc2ncnc(Nc3ccc4ncsc4c3F)c12)[C@H]1CCCO1 [Example 113, 7-fluoro-N-(7-(1-methyl-1H-pyrazol-4-yl)-5-((R)-1-((R)-tetrahydrofuran-2-yl)ethoxy)quinazolin-4-yl)benzo[d]thiazol-6-amine] | ≤ 10 | ≤ 10 | ≤ 10
24 | COc1cn(C)nc1-c1cc(OC2CCN(C)CC2)c2c(Nc3ccc4ncsc4c3)ncnc2c1 [Example 314, N-(7-(4-methoxy-1-methyl-1H-pyrazol-3-yl)-5-((1-methylpiperidin-4-yl)oxy)quinazolin-4-yl)benzo[d]thiazol-6-amine] | ≤ 10 | ≤ 10 | ≤ 10
25 | C[C@@H]1CN(C)CCN1c1cc(O[C@H](C)C2COC2)c2c(Nc3ccc4ncsc4c3F)ncnc2c1 (single isomer, unassigned) [Example 107, N-(7-((R)-2,4-dimethylpiperazin-1-yl)-5-((R)-1-(oxetan-3-yl)ethoxy)quinazolin-4-yl)-7-fluorobenzo[d]thiazol-6-amine or N-(7-((R)-2,4-dimethylpiperazin-1-yl)-5-((S)-1-(oxetan-3-yl)ethoxy)quinazolin-4-yl)-7-fluorobenzo[d]thiazol-6-amine] | 10.1 to 50 | ≤ 10 | 10.1 to 50
26 | C[C@@H](Oc1cc(-c2cn(C)n(C(F)F)c2=O)cc2ncnc(Nc3ccc4ncsc4c3)c12)C1COC1 (single isomer, unassigned) [Example 175] | ≤ 10 | ≤ 10 | 10.1 to 50
27 | COCCN1CCC(Oc2cc(-c3cnn(C)c3)cc3ncnc(Nc4ccc5ncsc5c4F)c23)CC1 [Example 316, 7-fluoro-N-(5-((1-(2-methoxyethyl)piperidin-4-yl)oxy)-7-(1-methyl-1H-pyrazol-4-yl)quinazolin-4-yl)benzo[d]thiazol-6-amine] | 10.1 to 50 | ≤ 10 | 10.1 to 50
28 | COc1cc2ncnc(Nc3ccc4ncsc4c3)c2cc1-c1cnn([C@@H]2CCNC[C@@H]2F)c1 (racemic) [Example 164, cis-N-(6-(1-((3R,4S)-3-fluoropiperidin-4-yl)-1H-pyrazol-4-yl)-7-methoxyquinazolin-4-yl)benzo[d]thiazol-6-amine] | ≤ 10 | ≤ 10 | 10.1 to 50
29 | C[C@H](CO)n1cc(-c2cc(O[C@H](C)C3COC3)c3c(Nc4ccc5ncsc5c4)ncnc3c2)cn1 (single isomer, unassigned) [Example 297] | ≤ 10 | ≤ 10 | ≤ 10

— patent US20260207602A1, “EGFR INHIBITORS” (Blueprint Medicines Corporation, priority 2022, published 2026)
